From patent US9365587B2, “Synthesis of carbamoylpyridone HIV integrase inhibitors and intermediates” (Shionogi & Co., Ltd., priority 2008, dated 2016)

Columns and labels:
Conditions in all cases: crystal
[1] = stability of the crystals against heat or light; assay type: physicochemical
[2] = pharmacokinetics of the crystals (BA, Cmax, Tmax); assay type: in vivo
[3] = solubility of the crystals in water or saline; assay type: physicochemical

- stability against heat or light [1]: high
- bioavailability (BA) [2]: high
- maximum drug concentration (Cmax) [2]: high
- maximum drug concentration time (Tmax) [2]: short
- solubility in water or saline [3]: high
Structure (SMILES): C[C@@H]1CCO[C@H]2Cn3cc(C(=O)NCc4ccc(F)cc4F)c(=O)c(O)c3C(=O)N12 [Compound 13]
